These results are taken from patent publication US11859252B2, “Diagnostic and therapeutic methods for cancer” (Genentech, Inc., priority 2017, dated 2024).

Entries after “also recorded” stand apart in the source; their conditions may differ.

For experiment [1], the system named is KRAS mutant syngeneic CRC xenograft model CT26. The experiment in a line: CT26 tumor growth model. It counts as in vivo. Particulars: 5 mg/kg each orally once a day, 21 days, vs either agent alone, FIGS. 5F-5G.
The test system of a further experiment is pMEK, pERK, pRSK, pAKT. The experiment in a line: Immunoblot of pathway markers after compound treatment. In kind it is cell-based. To be noted: A549 and HCT-116; 1 μM HM95573, 250 nM cobimetinib; FIGS. 5D-5E. The protocol: Cells lysed in lysis buffer (0.5% NP40, 20 mM Tris, pH 7.5, 137 mM NaCl, 10% glycerol, 1 mM EDTA) plus protease inhibitor mixture-complete mini (Roche Applied Science, 11836170001) and phosphatase inhibitor mix (Thermo, 78426). Lysates were centrifuged at 15,000 rpm for 10 minutes and the protein concentration determined using BCA (Thermo, 23227). Equal amounts of protein were subjected to SDS-PAGE NuPAGE 4-12% Bis-Tris Gel (Novex, WG-1403) and transferred to nitrocellulose membrane (BioRad, 170-4159). After blocking in blocking buffer (Li-Cor, 927-40000), membranes were incubated with the indicated primary antibodies and analyzed either by the addition of secondary antibodies IRDye 680LT Goat anti-Mouse IgG (H+L) (Li-Cor, 926-68050) or IRDye 800CW goat anti-Rabbit IgG (H+L) (Li-Cor, 926-32211). The membranes were visualized on the LiCor Odyssey CLx Scanner.
(A western blot detects proteins with antibodies after separation by electrophoresis.)

The test system of experiment [2] is 196 lung, colon, skin, and ovarian cancer cell lines. The experiment in a line: 196 cell line screen, HM95573 and cobimetinib co-dilution. In kind it is cell-based. The protocol:
Compounds were screened in nine-point dose response using a three-fold dilution. Cells were seeded into 384-well plates 24 hours prior to compound addition. Cells were then incubated with compound for 72 hours or 120 hours before assaying viability (CellTiter-Glo, Promega). Assays were performed in biological triplicate. Cells were incubated (37° C., 5% CO2) in RPMI-1640, 2.5% FBS (72 hour assay) or 5% FBS (120 hour assay), and 2 mM glutamine throughout the assay. The reported IC50 and mean viability metrics are as follows: IC50 is the dose at which the estimated inhibition is 50% relative to untreated wells (i.e., absolute IC50). Mean viability is equivalent to the area under the log-dose/viability curve divided by the total number of tested doses.
For combination synergy studies, cells were plated in 384-well plates (Corning) and treated with varying concentrations of compound, either alone or in combination for 72 hours. Cell viability was determined using CellTiter-Glo Luminescent Cell Viability Assay (Promega, G7573). Synergistic effects were determined using the Bliss independence analysis methods (Greco et al. Pharmacol. Rev. 47: 331-385, 1995; Chou and Talalay. Adv. Enzyme Regul. 22:27-55, 1984; Chou. Cancer Res. 70: 440-446, 2010; Bliss. Ann. Appl. Biol. 25: 31, 1939).

With `Cc1ccc2c(Nc3cccc(Cl)c3F)nccc2c1NC(=O)c1csc2c(N)ncnc12` [HM95573], the “tumor growth inhibition (TGI), combination with cobimetinib” value in experiment [1] is recorded as “improved tumor growth inhibition (TGI) in vivo”. Also, in the experiment on pMEK, pERK, pRSK, pAKT, the “combination activity with cobimetinib on pMEK, pERK, pRSK” value was “combination activity was also observed; also recorded: combination activity is observed”. In experiment [2] (HM95573 and cobimetinib, colorectal and lung lines, FIG. 6D), the “association of combination sensitivity with KRAS-G13D” value is “This trend was most evident in colorectal cancer lines”. The “synergy score (positive Bliss excess) with cobimetinib by genotype” value in experiment [2] (co-dilution with cobimetinib, three days, FIG. 5H) was “significantly higher synergy scores were observed in RAS mutant cell lines compared to either BRAF-V600 mutants or wild-type; also recorded: greater synergy in RAS mutant cell lines and a subset of RAS/RAF wild-type cell lines relative to BRAF-V600 cell lines”.
